Test results from publication PMC5267519, “Evaluation of a Novel Renewable Hepatic Cell Model for Prediction of Clinical CYP3A4 Induction Using a Correlation-Based Relative Induction Score Approach” (Drug Metabolism and Disposition, 2017).
Read-outs that look alike come from different tables or passages of the source.

Columns and labels:
CYP3A4 [1] = settings: for CYP3A4 enzyme activity induction response (in words): three lots of HepatoCells, eight concentrations; for RIS Based on Enzyme Activity: RIS = (Emax × Cmax,ub)/(EC50 + Cmax,ub); for RIS Based on Enzyme Activity, Mean: mean of lots 2B, 3A, 3B
CYP3A4 mRNA = test: Concentration-dependent CYP3A4 mRNA induction in HepatoCells; settings: for CYP3A4 mRNA expression induction response (in words): three lots of HepatoCells, eight concentrations; for Emax / EC50: CYP3A4 mRNA fold increase, NI = no induction observed at tested concentration; for Emax: 3 consecutive days treatment, quinidine: only observed maximum fold induction; for RIS Based on mRNA: RIS = (Emax × Cmax,ub)/(EC50 + Cmax,ub); for EC50: human, nominal concentrations; for RIS Based on mRNA, Mean: mean of lots 2B, 3A, 3B
Procedure: (§1) Cryopreserved HepatoCells were thawed quickly in a 37°C water bath and transferred to Corning Culture Medium for HepatoCells supplemented with 10% fetal bovine serum and Pen/Strep (plating medium). After the cryo-freezing media was removed by centrifugation at 150g for 10 minutes, the cell pellet was resuspended in plating media and cell count was performed with trypan blue. Cells were then seeded in a Corning BioCoat Collagen I–coated plate (500,000 cells/well in 24-well plate or 80,000 cells/well in 96-well plate), and plates were incubated in a 37°C incubator with 5% CO2. […] Cells were then returned to the incubator for overnight culture.
Stock solutions of test compounds were prepared by dissolving each compound in DMSO and serially diluting the solutions in DMSO. Final working solutions were freshly prepared daily by diluting the 1000× stock solutions in culture medium. Three lots of HepatoCells culture were treated with eight concentrations of test compounds. Both enzymatic activity (testosterone 6β hydroxylase activity) and mRNA expression were measured as endpoints using LC-MS/MS and real-time reverse-transcription polymerase chain reaction, respectively.

MRP2 = target: T1, MRP2 (Homo sapiens, UniProt Q92887); test: CDFDA staining of bile canaliculi in HepatoCells sandwich culture; format: cell-based; settings: pretreatment with inhibitor
T1 construct: the functional efflux transporter MRP2 is expressed and localized at the apical surface of HepatoCells; host or cells: Corning HepatoCells, collagen/Matrigel sandwich culture
Procedure: On day 1, HepatoCells were plated on collagen-coated dishes. Four to six hours after seeding, cell monolayer was overlaid with Matrigel solution at 0.25 mg/mL (as described above). Daily medium change was performed from day 2 to day 4 using fresh Corning Culture Medium for HepatoCells. On day 5, the sandwich cultures were incubated with carboxy-dichlorofluorescein diacetate (CDFDA), a multidrug-resistant protein 2 (MRP2) substrate that is metabolized by cytosolic esterases. The fluorescent CDFDA metabolite accumulated in bile canalicular lumens was visualized using fluorescence microscopy.

CYP3A4 [2] = settings: for Predicted % AUC Change Based on Activity / Predicted % AUC Change Based on mRNA: RIS calibration curve
From the text: The resulting fitting equation was used to calculate predicted in vivo AUC change for each compound. […] Prediction accuracy using HepatoCells was also compared with prediction accuracy using primary human hepatocytes.

CYP1A2 [3] = test: CYP1A2 induction response to prototypical inducer, enzyme activity, HepatoCells; settings: human, probe phenacetin 100 µM
Procedure: as §1

CYP1A2 [4] = test: CYP1A2 induction response to prototypical inducer, enzyme activity, primary human hepatocytes; settings: cryopreserved primary human hepatocytes, probe phenacetin 100 µM
CYP3A4 [5] = settings: clinical DDI; decrease in AUC of victim drug (midazolam or nonmidazolam); ref Zhang et al., 2014; cited from earlier work
[6] = Solubility at test concentrations in induction assay; format: physicochemical; settings: at 33 μM and 100 μM
Procedure: Only curve fitting with correlation coefficient (R^2) > 0.85 is accepted. At high concentrations for some compounds, if toxicity or insolubility becomes obvious, such data are excluded from curve fitting. Following the same approach as described by [Zhang et al. (2014)] and [Fahmi and Ripp (2010)], for data sets that show no apparent plateau, the observed maximum fold increase is accepted as Emax to avoid extrapolating too much above the experimental values and EC50 is calculated accordingly from the fitting curve.

[7] = range over named compounds and three lots

T1 sequence (Q92887 whole entry): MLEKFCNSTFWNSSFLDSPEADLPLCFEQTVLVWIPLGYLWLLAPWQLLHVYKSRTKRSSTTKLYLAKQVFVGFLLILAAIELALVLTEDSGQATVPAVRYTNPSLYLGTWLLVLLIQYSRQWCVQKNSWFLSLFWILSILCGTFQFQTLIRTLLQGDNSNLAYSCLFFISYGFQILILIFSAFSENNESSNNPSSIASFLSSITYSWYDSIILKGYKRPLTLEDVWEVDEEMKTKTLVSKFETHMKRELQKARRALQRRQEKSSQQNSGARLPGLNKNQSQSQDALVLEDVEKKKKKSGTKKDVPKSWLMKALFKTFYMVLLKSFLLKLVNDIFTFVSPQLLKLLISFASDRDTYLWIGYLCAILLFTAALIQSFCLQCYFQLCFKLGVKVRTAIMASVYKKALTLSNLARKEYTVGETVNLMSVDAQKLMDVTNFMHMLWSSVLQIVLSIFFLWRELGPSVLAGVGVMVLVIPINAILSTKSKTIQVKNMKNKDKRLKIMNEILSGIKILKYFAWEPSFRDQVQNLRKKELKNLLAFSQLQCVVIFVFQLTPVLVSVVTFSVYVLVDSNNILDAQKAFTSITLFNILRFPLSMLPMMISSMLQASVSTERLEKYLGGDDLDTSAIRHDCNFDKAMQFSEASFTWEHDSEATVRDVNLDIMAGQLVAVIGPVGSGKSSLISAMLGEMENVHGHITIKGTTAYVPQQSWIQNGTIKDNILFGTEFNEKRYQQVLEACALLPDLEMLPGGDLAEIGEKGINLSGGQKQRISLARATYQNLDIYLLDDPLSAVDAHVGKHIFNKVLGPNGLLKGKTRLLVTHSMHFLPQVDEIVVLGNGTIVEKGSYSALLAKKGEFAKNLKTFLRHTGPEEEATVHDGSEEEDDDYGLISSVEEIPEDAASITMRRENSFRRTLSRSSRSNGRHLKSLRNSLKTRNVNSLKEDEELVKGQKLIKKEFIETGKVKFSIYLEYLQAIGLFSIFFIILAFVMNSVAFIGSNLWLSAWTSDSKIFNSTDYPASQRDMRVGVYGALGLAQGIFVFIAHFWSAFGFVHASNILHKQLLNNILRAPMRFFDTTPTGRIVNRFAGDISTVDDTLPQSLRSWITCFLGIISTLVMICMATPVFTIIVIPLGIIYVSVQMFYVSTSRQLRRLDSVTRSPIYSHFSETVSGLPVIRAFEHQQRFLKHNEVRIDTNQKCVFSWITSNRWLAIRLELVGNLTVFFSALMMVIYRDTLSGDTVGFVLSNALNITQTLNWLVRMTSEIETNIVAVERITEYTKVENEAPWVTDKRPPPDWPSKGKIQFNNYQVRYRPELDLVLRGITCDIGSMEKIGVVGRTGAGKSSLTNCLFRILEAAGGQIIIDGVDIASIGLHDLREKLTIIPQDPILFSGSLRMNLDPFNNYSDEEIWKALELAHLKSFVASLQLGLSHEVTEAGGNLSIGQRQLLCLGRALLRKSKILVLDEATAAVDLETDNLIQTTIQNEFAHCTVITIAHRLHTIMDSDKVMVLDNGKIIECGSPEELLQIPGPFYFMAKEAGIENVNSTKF

C[C@H]1O[C@@H](O[C@H]2[C@@H](O)C[C@H](O[C@H]3[C@@H](O)C[C@H](O[C@H]4CC[C@@]5(C)[C@H](CC[C@@H]6[C@@H]5C[C@@H](O)[C@]5(C)[C@@H](C7=CC(=O)OC7)CC[C@]65O)C4)O[C@@H]3C)O[C@@H]2C)C[C@H](O)[C@@H]1O [Digoxin]
CYP3A4 enzyme activity induction response (in words) (CYP3A4 [1]): no induction response
CYP3A4 mRNA expression induction response (in words) (CYP3A4 mRNA): no induction response

CN(C)C(=O)CCSC(SCCC(=O)O)c1cccc(/C=C/c2ccc3ccc(Cl)cc3n2)c1 (stereo not drawn) [MK571]
effect on CDFDA staining of bile canaliculi (MRP2): inhibited the specific CDFDA staining of bile canaliculi

COc1ccc2[nH]c([S+]([O-])Cc3ncc(C)c(OC)c3C)nc2c1 (stereo not drawn) [Omeprazole]
RIS Based on Enzyme Activity (CYP3A4 [1]; Lot 2B): 0.015
RIS Based on Enzyme Activity (CYP3A4 [1]; Lot 3A): 0.009
RIS Based on Enzyme Activity (CYP3A4 [1]; Lot 3B): 0.007
RIS Based on Enzyme Activity, Mean (CYP3A4 [1]): 0.0103
RIS values based on enzyme activity (range stated for group of compounds) (CYP3A4 [1]; [7]): 0.0004–0.09
Predicted % AUC Change Based on Activity (CYP3A4 [2]; Lot 2B HepatoCells): 0.11%
Predicted % AUC Change Based on mRNA (CYP3A4 [2]; Lot 2B HepatoCells): 1.7%
Predicted % AUC Change Based on Activity (CYP3A4 [2]; Lot 3A HepatoCells): 0.002%
Predicted % AUC Change Based on mRNA (CYP3A4 [2]; Lot 3A HepatoCells): 0.14%
Predicted % AUC Change Based on Activity (CYP3A4 [2]; Lot 3B HepatoCells): 0.017%
Predicted % AUC Change Based on mRNA (CYP3A4 [2]; Lot 3B HepatoCells): 0.35%
Predicted AUC change using HepatoCells (range of lots) (CYP3A4 [2]; three lots, mRNA or activity basis not given): 0.1–1.7%
Emax (CYP3A4 mRNA; Lot 2B HepatoCells): 24 Fold
RIS Based on mRNA (CYP3A4 mRNA; Lot 2B): 0.069
Emax (CYP3A4 mRNA; Lot 3A HepatoCells): 45 Fold
RIS Based on mRNA (CYP3A4 mRNA; Lot 3A): 0.073
Emax (CYP3A4 mRNA; Lot 3B HepatoCells): 27 Fold
RIS Based on mRNA (CYP3A4 mRNA; Lot 3B): 0.079
EC50 (CYP3A4 mRNA; EC50, Lot 2B HepatoCells): 13 µM
EC50 (CYP3A4 mRNA; EC50, Lot 3A HepatoCells): 23 µM
EC50 (CYP3A4 mRNA; EC50, Lot 3B HepatoCells): 13 µM
RIS Based on mRNA, Mean (CYP3A4 mRNA): 0.074
RIS values based on CYP3A4 mRNA level (range stated for group of compounds) (CYP3A4 mRNA; [7]): 0.0012–0.16
fold induction at 72 h, 50 µM (CYP1A2 [3]): 32.4
fold induction at 72 h, 50 µM (CYP1A2 [4]): 28.7
Observed % AUC Change (CYP3A4 [5]): −25%

O=C1C(CC[S+]([O-])c2ccccc2)C(=O)N(c2ccccc2)N1c1ccccc1 (stereo not drawn) [Sulfinpyrazone]
RIS Based on Enzyme Activity (CYP3A4 [1]; Lot 2B): 1.5
RIS Based on Enzyme Activity (CYP3A4 [1]; Lot 3A): 1.4
RIS Based on Enzyme Activity (CYP3A4 [1]; Lot 3B): 1.2
RIS Based on Enzyme Activity, Mean (CYP3A4 [1]): 1.3
Emax (CYP3A4 mRNA; Lot 2B HepatoCells): 31 Fold
RIS Based on mRNA (CYP3A4 mRNA; Lot 2B): 1.2
Emax (CYP3A4 mRNA; Lot 3A HepatoCells): 53 Fold
RIS Based on mRNA (CYP3A4 mRNA; Lot 3A): 1.8
Emax (CYP3A4 mRNA; Lot 3B HepatoCells): 38 Fold
RIS Based on mRNA (CYP3A4 mRNA; Lot 3B): 1.1
EC50 (CYP3A4 mRNA; EC50, Lot 2B HepatoCells): 23 µM
EC50 (CYP3A4 mRNA; EC50, Lot 3A HepatoCells): 28 µM
EC50 (CYP3A4 mRNA; EC50, Lot 3B HepatoCells): 32 µM
RIS Based on mRNA, Mean (CYP3A4 mRNA): 1.4

CCOC(=O)c1ncn2c1CN(C)C(=O)c1cc(F)ccc1-2 [Flumazenil]
CYP3A4 enzyme activity induction response (in words) (CYP3A4 [1]): no induction response
CYP3A4 mRNA expression induction response (in words) (CYP3A4 mRNA): no induction response

CCc1ccc(CCOc2ccc(CC3SC(=O)NC3=O)cc2)nc1 (stereo not drawn) [Pioglitazone]
RIS Based on Enzyme Activity (CYP3A4 [1]; Lot 2B): 0.12
RIS Based on Enzyme Activity (CYP3A4 [1]; Lot 3A): 0.20
RIS Based on Enzyme Activity (CYP3A4 [1]; Lot 3B): 0.28
RIS Based on Enzyme Activity, Mean (CYP3A4 [1]): 0.2
solubility [6]: insoluble
Predicted % AUC Change Based on Activity (CYP3A4 [2]; Lot 2B HepatoCells): 17%
Predicted % AUC Change Based on mRNA (CYP3A4 [2]; Lot 2B HepatoCells): 36%
Predicted % AUC Change Based on Activity (CYP3A4 [2]; Lot 3A HepatoCells): 23%
Predicted % AUC Change Based on mRNA (CYP3A4 [2]; Lot 3A HepatoCells): 35%
Predicted % AUC Change Based on Activity (CYP3A4 [2]; Lot 3B HepatoCells): 34%
Predicted % AUC Change Based on mRNA (CYP3A4 [2]; Lot 3B HepatoCells): 29%
Predicted AUC change using enzyme activity data (range of lots) (CYP3A4 [2]; three lots of HepatoCells): 17–34%
Predicted AUC change using mRNA data (range of lots) (CYP3A4 [2]; three lots of HepatoCells): 29–36%
Emax (CYP3A4 mRNA; Lot 2B HepatoCells): 33 Fold
RIS Based on mRNA (CYP3A4 mRNA; Lot 2B): 0.28
Emax (CYP3A4 mRNA; Lot 3A HepatoCells): 31 Fold
RIS Based on mRNA (CYP3A4 mRNA; Lot 3A): 0.37
Emax (CYP3A4 mRNA; Lot 3B HepatoCells): 15 Fold
RIS Based on mRNA (CYP3A4 mRNA; Lot 3B): 0.21
EC50 (CYP3A4 mRNA; EC50, Lot 2B HepatoCells): 3.3 µM
EC50 (CYP3A4 mRNA; EC50, Lot 3A HepatoCells): 2.3 µM
EC50 (CYP3A4 mRNA; EC50, Lot 3B HepatoCells): 2 µM
RIS Based on mRNA, Mean (CYP3A4 mRNA): 0.29
Observed % AUC Change (CYP3A4 [5]): 26%
